Data on ten compounds can be found in patent US7947695B2, “5-membered annelated heterocyclic pyrimidines as kinase inhibitors” (Janssen Pharmaceutica NV, priority 2005, dated 2011).

Data set [1] concerns the target CDK4/cyclinD1 (Homo sapiens, UniProt P11802). The data set is described as follows: In vitro filtration assay for CDK4 inhibitory activity (pRb phosphorylation, [33P]-ATP). Format: biochemical. Particulars: GST-pRb substrate, 1 μM unlabeled ATP, 25° C. 45 minutes, read-out: cdk4 filter (pIC50) (converted). Summed up: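 CDK4/cyclinD1 phosphorylating GST-pRb for 45 min at 25 °C in Hepes pH 7.5 with 1 µM ATP plus [33P]-ATP; labelled pRb captured on filtermats and counted. Activity expressed as percent of blank-corrected DMSO control; IC50 by linear interpolation, reported as pIC50.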

Data set [2] concerns the target CDK4/cyclinD1 enzyme complex (Homo sapiens, UniProt P11802). The data set is described as follows: In vitro scintillation proximity assay (SPA) for CDK4 inhibitory activity. Particulars: GST-pRb substrate, 33P-ATP, 25° C. 30 minutes, read-out: cdk4 SPA see C.4 (pIC50) (converted). The class given is biochemical. As to the method: Compounds of the present invention were tested in an in vitro assay based on SPA technology.
In principle, the assay relies upon the well established SPA technology for the detection of CDK4 phosphorylated proteins, i.e pRb. This phosphorylation is performed using I0 CDK4/cyclinD1 enzyme complex and ^33P-ATP as phosphor donor.
The CDK4 SPA kinase reaction is performed at 25° C. for 30 minutes in a 96-well microtiter plate. The 100 μl reaction volume contains 40 mM Hepes, 6 mM NaF, 6 mM MgCl2, 0.6 mM Na3VO4, 2 μg/ml Pepstatin, 2 μg/ml Leupeptin, 2 μg/ml Aprotinin, 50 μg/ml TLCK, 150 μg/ml DTT, 0.3 μg/ml benzamide, 0.1 μCi ^33P-ATP, 1.7 μg GST-pRb, 50 ng CDK4/cyclinD1/well and 0.2% compound in 100% DMSO. The reaction is stopped by adding to each well 100 μl of the glutathione coated SPA beads (10 mg/ml in PBS+10 mM EDTA+100 μM ATP+0.05% Triton X 100). The plates are then shaked at 300 rpm for 30 min to allow binding of the GST-tagged substrate to the glutathione coated beads. The beads are allowed to settle at the bottom of the plate for 30 minutes. The microtiterplates are centrifuges at 800 rpm for 10 minutes and the amount of phosphorylated (^33P) substrate is determined by counting (30 sec/well) in a microtiterplate scintillation counter.
For each experiment, controls (containing enzyme (complex) and DMSO without compound), a blank incubation (containing DMSO but no enzyme (complex) or compound) and samples (containing enzyme (complex) and compound dissolved in DMSO) were run in parallel. All compounds tested were dissolved and eventually further diluted in DMSO. […] In each test, the blank value was subtracted from both the control and the sample values. The control sample represented maximal enzyme activity. For each sample, the amount of cpm was expressed as a percentage of the mean cpm value of the controls. When appropriate, IC50-values (concentration of the drug, needed to reduce the enzyme activity to 50% of the control) were computed using linear interpolation between the experimental points just above and below the 50% level. Herein the effects of test compounds are expressed as pIC50 (the negative log value of the IC50-value).

Data set [3] addresses T1, AURORA A (Homo sapiens, UniProt O14965).
T1 sequence (O14965 1-403): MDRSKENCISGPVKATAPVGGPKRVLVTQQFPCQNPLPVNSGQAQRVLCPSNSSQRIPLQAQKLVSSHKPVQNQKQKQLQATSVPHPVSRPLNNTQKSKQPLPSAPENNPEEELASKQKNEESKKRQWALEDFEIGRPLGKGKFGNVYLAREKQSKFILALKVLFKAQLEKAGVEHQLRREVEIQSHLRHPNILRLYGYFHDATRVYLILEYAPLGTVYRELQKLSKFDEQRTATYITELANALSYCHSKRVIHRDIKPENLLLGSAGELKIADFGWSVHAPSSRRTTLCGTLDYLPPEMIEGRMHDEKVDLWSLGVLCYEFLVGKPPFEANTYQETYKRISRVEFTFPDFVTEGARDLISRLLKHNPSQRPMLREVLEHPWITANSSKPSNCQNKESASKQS
As to the kind of experiment: In vitro filtration assay for AURORA A inhibitory activity. Format: biochemical. The note with it: Kemptide substrate, 1 μM unlabeled ATP, 25° C. 40 minutes, read-out: Aurora A see C.2 (pIC50) (converted). Summed up:
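Radiometric filter-binding assay at 25 °C for 40 min in MOPS pH 7 buffer with 1 μM ATP plus [33P]-ATP, 200 μM Kemptide and 3 ng enzyme/well. Blank-corrected cpm were expressed as % of DMSO control. IC50 was obtained by linear interpolation around 50% and reported as pIC50.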

In data set [4] the target is AURORA B (Homo sapiens, UniProt Q96GD4). The data set is described as follows: In vitro filtration assay for AURORA B inhibitory activity. The class given is biochemical. Particulars: peptide (C(LRRWSLG)×4), 1 μM unlabeled ATP, 25° C. 40 minutes, read-out: Aurora B see C.3 (pIC50) (converted). In short, it runs like this: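 Radiometric filter-binding assay: Aurora-B (100 ng/well) phosphorylates C(LRRWSLG)×4 peptide with 1 μM ATP plus AT^33P, HEPES pH 7.5, Mg/Mn, 40 min at 25° C. Incorporated 33P counted after phosphoric acid washes; blank-subtracted % of control, IC50 by linear interpolation, reported as pIC50.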
Chain of AURORA B (Q96GD4 whole entry): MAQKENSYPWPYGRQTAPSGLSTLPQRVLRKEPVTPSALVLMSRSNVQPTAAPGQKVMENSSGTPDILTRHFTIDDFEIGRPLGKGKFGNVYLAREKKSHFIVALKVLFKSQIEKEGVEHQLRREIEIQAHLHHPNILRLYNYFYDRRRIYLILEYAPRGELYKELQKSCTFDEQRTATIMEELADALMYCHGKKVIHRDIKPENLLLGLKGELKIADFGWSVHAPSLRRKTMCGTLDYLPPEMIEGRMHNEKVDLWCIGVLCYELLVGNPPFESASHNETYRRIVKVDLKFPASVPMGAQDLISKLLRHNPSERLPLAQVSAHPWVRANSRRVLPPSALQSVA

Chain of CDK4/cyclinD1 enzyme complex (P11802 whole entry): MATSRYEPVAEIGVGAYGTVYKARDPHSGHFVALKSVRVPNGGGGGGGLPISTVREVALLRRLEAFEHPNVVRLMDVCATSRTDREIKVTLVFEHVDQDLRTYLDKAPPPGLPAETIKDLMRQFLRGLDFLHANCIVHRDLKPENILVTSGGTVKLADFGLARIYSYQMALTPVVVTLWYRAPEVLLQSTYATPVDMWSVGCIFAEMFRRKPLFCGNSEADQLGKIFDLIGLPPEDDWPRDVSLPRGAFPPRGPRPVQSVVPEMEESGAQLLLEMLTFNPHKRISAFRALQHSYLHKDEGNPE
Chain of CDK4/cyclinD1 enzyme complex (P24385 whole entry partner): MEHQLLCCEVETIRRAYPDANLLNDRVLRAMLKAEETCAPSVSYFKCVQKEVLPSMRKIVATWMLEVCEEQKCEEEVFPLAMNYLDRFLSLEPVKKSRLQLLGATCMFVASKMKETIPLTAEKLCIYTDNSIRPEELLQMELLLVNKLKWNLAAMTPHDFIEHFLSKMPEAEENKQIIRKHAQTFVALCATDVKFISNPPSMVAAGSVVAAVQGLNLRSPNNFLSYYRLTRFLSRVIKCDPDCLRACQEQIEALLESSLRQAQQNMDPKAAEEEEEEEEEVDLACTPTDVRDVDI
Chain of CDK4/cyclinD1 (P11802 whole entry): as the sequence (P11802 whole entry) above
Chain of CDK4/cyclinD1 (P24385 whole entry partner): as the sequence (P24385 whole entry partner) above

Compound `CN1CCN(c2ccc(Nc3ncc4cnn(C5CCCCC5)c4n3)cc2)CC1` [Co. No. 1] gave a melting point of 180 °C. Moreover, the IC50 in data set [1] was 0.00316 µM. Moreover, the IC50 in data set [2] was 0.00501 µM. The IC50 in data set [3] is 0.126 µM. Moreover, the IC50 in data set [4] was 0.251 µM.
Regarding `CN1CCN(c2ccc(Nc3ncc4ncn(C5CCCCC5)c4n3)cc2)CC1` [Co. No. 5], the melting point lay within 203.5 to 203.6 °C. In data set [1], the IC50 is 0.631 µM. In data set [2], the IC50 was 3.16 µM. In addition, the IC50 in data set [3] was over 10 µM. For the same compound, the IC50 in data set [4] is over 10 µM.
Consider `CN1CCN(c2ccc(Nc3ncc4[nH]c(=O)n(C5CCCCC5)c4n3)cc2)CC1` [Co. No. 6], for which the melting point turned out to be 294 °C. In data set [1], the IC50 is 0.251 µM. Moreover, the IC50 in data set [2] is 0.1 µM. Besides, the IC50 in data set [3] is over 10 µM. Further, in data set [4], the IC50 was over 10 µM.
As to `CN1CCN(c2ccc(Nc3ncc4c(=O)[nH]n(C5CCCCC5)c4n3)cc2)CC1` [Co. No. 7], the melting point is over 260 °C. In addition, the IC50 in data set [1] is 0.0794 µM. In addition, the IC50 in data set [2] was 0.158 µM. For the same compound, the IC50 in data set [4] is 0.398 µM.
Take `O=S(=O)(c1ccc(Nc2ncc3cnn(C4CCCCC4)c3n2)cc1)N1CCOCC1` [Co. No. 8]: the melting point amounted to 240 °C. For the same compound, the IC50 in data set [1] is 0.1 µM. Also, the IC50 in data set [3] was 0.501 µM. Moreover, in data set [4], the IC50 was over 10 µM.
The corresponding values for `O=C(NC1CCN(CCO)CC1)c1ccc(Nc2ncc3cnn(C4CCCCC4)c3n2)cc1` [Co. No. 9] are 177 to 181 °C, 0.126 µM, 0.251 µM and 0.794 µM.
In the case of `CN1CCN(c2ccc(Nc3ncc4cnn(-c5ccccc5)c4n3)cc2)CC1` [compound 14], the IC50 in data set [1] was 0.02 µM; in data set [2] it was 0.00398 µM; in data set [3], 0.0794 µM; in data set [4] it was 0.794 µM.
Consider `CN1CCN(c2ccc(Nc3ncc4c(=O)[nH]n(C5CCCC5)c4n3)cc2)CC1` [compound 91], for which the IC50 in data set [1] was 0.631 µM; in data set [2], 1.26 µM; in data set [3] it was 7.94 µM; in data set [4], over 10 µM.
For the compound `O=c1[nH]n(C2CCCC2)c2nc(Nc3ccc(N4CCOCC4)cc3)ncc12` [compound 93], the IC50 in data set [1] is 5.01 µM; in data set [2], 2.51 µM; in data set [3], 1.58 µM; in data set [4] it was over 10 µM.
The corresponding values for `O=c1[nH]n(C2CCCCC2)c2nc(Nc3ccc(N4CCC(CCCO)CC4)cc3)ncc12` [compound 94] are 1.58 µM, 1 µM, 3.16 µM and over 10 µM.
